Assay results from patent US20020137929A1, “1 - (3-heterocyclylphenyl) isothiourea, -isourea, -guanidine and -amidine herbicidal agents” (Intellectual Property Department, BASF Aktiengesellschaft, priority 1998, published 2002).

Legend:
[1] = test system: ABUTH (Velvetleaf); assay: Postemergence herbicidal evaluation; assay type: in vivo, Abutilon theophrasti; details: postemergence
Procedure, shortened: (§1)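 Young plants, roughly two weeks from seeding, receive the active ingredient as a sprayed dispersion (acetone/water 50/50, 0.5% TWEEN 20) at 40 psi. Doses span about 0.0156 to 0.500 kg/ha. A visual score from 0 to 9 compares treated with control plants four to five weeks on.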

[2] = test system: IPOHE (Morningglory, Ivyleaf); assay: Postemergence herbicidal evaluation; assay type: in vivo, Ipomoea hederacea; details: postemergence
Procedure, shortened: as §1

[3] = test system: SETVI (Foxtail, Green); assay: Postemergence herbicidal evaluation; assay type: in vivo, Setaria viridis; details: postemergence
Procedure, shortened: as §1

[4] = test system: GLXMAW (Soybean, Williams); assay: Postemergence herbicidal evaluation; assay type: in vivo, Glycine max, (L.) Merr. cv Williams; details: postemergence
Procedure, shortened: as §1

[5] = test system: ZEAMX (Corn, Field); assay: Postemergence herbicidal evaluation; assay type: in vivo, Zea mays; details: postemergence
Procedure, shortened: as §1

[6] = test system: ABUTH (Velvetleaf); assay: Preemergence herbicidal evaluation; assay type: in vivo, Abutilon theophrasti; details: rated 4-5 weeks after treatment
Procedure, shortened: (§2)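 In this greenhouse assay, monocot and dicot seeds are planted in soil and treated prior to emergence with an aqueous acetone spray (about 0.0156-0.500 kg/ha). Plants are assessed visually against control on a 0-9 scale after 4-5 weeks.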

[7] = test system: AMBEL (Ragweed, Common); assay: Preemergence herbicidal evaluation; assay type: in vivo, Ambrosia artemisifolia; details: rated 4-5 weeks after treatment
Procedure, shortened: as §2

[8] = test system: CASOB (Sicklepod); assay: Preemergence herbicidal evaluation; assay type: in vivo, Cassia obtusifolia; details: rated 4-5 weeks after treatment
Procedure, shortened: as §2

[9] = test system: IPOHE (Morningglory, Ivyleaf); assay: Preemergence herbicidal evaluation; assay type: in vivo, Ipomoea hederacea; details: rated 4-5 weeks after treatment
Procedure, shortened: as §2

[10] = test system: ECHCG (Barnyardgrass); assay: Preemergence herbicidal evaluation; assay type: in vivo, Echinochloa crus-galli; details: rated 4-5 weeks after treatment
Procedure, shortened: as §2

[11] = test system: ECHORC (Watergrass (Calif.)); assay: Preemergence weed control under flooded paddy conditions; assay type: in vivo, Echinochloa oryzoides; details: rated 3-4 weeks after treatment
Procedure, shortened: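 Seeds or propagules sown in silt loam kept flooded 1.5-3 cm; compounds in 50/50 acetone/water pipetted into flood water at about 0.0313 to 0.500 kg/ha. Greenhouse; visual 0-9 rating versus untreated control 3-4 weeks after treatment.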

[12] = test system: CYPSE (Flatsedge); assay: as above; assay type: in vivo, Cyperus serotinus; details: rated 3-4 weeks after treatment
Procedure, shortened: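 Values are visual 0-9 scores against a control for a preemergence application into paddy flood water at about 0.0313 to 0.500 kg/ha. Greenhouse duration was three to four weeks.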

[13] = test system: ECHORC (Watergrass (Calif.)); assay: Postemergence weed control under flooded paddy conditions; assay type: in vivo, Echinochloa oryzoides; details: postemergence weeds, 3-4 weeks after treatment
Procedure, shortened: (§3)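 Containers holding 3–5 cm weeds and rice at 1.5–2.5 leaves are flooded to 1.5–3 cm above soil. Compound in 50/50 v/v aqueous/acetone is then added directly to the water, about 0.0313–0.500 kg/ha. Plants are kept in the greenhouse and rated 0–9 visually at 3–4 weeks.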

[14] = test system: CYPIR (Rice Flatsedge); assay: as above; assay type: in vivo, Cyperus iria; details: postemergence weeds, 3-4 weeks after treatment
Procedure, shortened: as §3

In the case of `CCOC(=O)CN1C(=O)C(=Cc2ccccc2)SC1=Nc1cc(-n2c(=O)cc(C(F)(F)F)n(C)c2=O)c(F)cc1Cl` [Compound 19, Ethyl 5-benzylidene-2-{{2-chloro-5-[3,6-dihydro-3-methyl-2,6-dioxo-4-(trifluoromethyl)-1(2H)-pyrimidinyl]-4-fluorophenyl}imino}-4-oxo-3-thiazolidineacetate], the ABUTH herbicidal rating ([1]; rate 0.0158 kg/ha) is reported as 9.0, the ABUTH herbicidal rating ([1]; rate 0.0315 kg/ha) is reported as 9.0 and the ABUTH herbicidal rating ([1]; rate 0.0630 kg/ha) is reported as 9.0. For the same compound, the IPOHE herbicidal rating ([2]; rate 0.0158 kg/ha) was 2.0, the IPOHE herbicidal rating ([2]; rate 0.0315 kg/ha) was 9.0 and the IPOHE herbicidal rating ([2]; rate 0.0630 kg/ha) was 5.0. For the same compound, the SETVI herbicidal rating ([3]; rate 0.0158 kg/ha) was 1.0, the SETVI herbicidal rating ([3]; rate 0.0315 kg/ha) was 2.0 and the SETVI herbicidal rating ([3]; rate 0.0630 kg/ha) was 2.0. It also gave a GLXMAW herbicidal rating ([4]; rate 0.0158 kg/ha) of 3.0, a GLXMAW herbicidal rating ([4]; rate 0.0315 kg/ha) of 4.5 and a GLXMAW herbicidal rating ([4]; rate 0.0630 kg/ha) of 4.5. For the same compound, the ZEAMX herbicidal rating ([5]; rate 0.0158 kg/ha) was 4.0, the ZEAMX herbicidal rating ([5]; rate 0.0315 kg/ha) was 4.5 and the ZEAMX herbicidal rating ([5]; rate 0.0630 kg/ha) was 5.0. For the same compound, the “ABUTH preemergence herbicidal rating” value ([6]; rate 0.1250 kg/ha) was 9.0, the “ABUTH preemergence herbicidal rating” value ([6]; rate 0.2500 kg/ha) was 9.0 and the “AMBEL preemergence herbicidal rating” value ([7]; rate 0.1250 kg/ha) was 0.0. For the same compound, the “AMBEL preemergence herbicidal rating” value ([7]; rate 0.2500 kg/ha) was 1.0, the “CASOB preemergence herbicidal rating” value ([8]; rate 0.1250 kg/ha) was 0.0 and the “CASOB preemergence herbicidal rating” value ([8]; rate 0.2500 kg/ha) was 0.0. The “IPOHE preemergence herbicidal rating” value ([9]; rate 0.1250 kg/ha) was 0.0, the “IPOHE preemergence herbicidal rating” value ([9]; rate 0.2500 kg/ha) was 0.0 and the “ECHCG preemergence herbicidal rating” value ([10]; rate 0.1250 kg/ha) was 0.0. The “ECHCG preemergence herbicidal rating” value ([10]; rate 0.2500 kg/ha) was 0.0, the “Herbicidal rating ECHORC” value ([11]; 0.1160 kg/ha) was 7.0 and the “Herbicidal rating ECHORC” value ([11]; 0.2310 kg/ha) was 7.0. For the same compound, the “Herbicidal rating ECHORC” value ([11]; 0.4630 kg/ha) was 9.0, the “Herbicidal rating CYPSE” value ([12]; 0.1160 kg/ha) was 4.0 and the “Herbicidal rating CYPSE” value ([12]; 0.2310 kg/ha) was 4.0. The “Herbicidal rating CYPSE” value ([12]; 0.4630 kg/ha) was 4.0, the “Herbicidal rating ECHORC” value ([13]; rate 0.1160 kg/ha) was 7.0 and the “Herbicidal rating ECHORC” value ([13]; rate 0.2310 kg/ha) was 7.0. For the same compound, the “Herbicidal rating ECHORC” value ([13]; rate 0.4630 kg/ha) was 9.0, the “Herbicidal rating CYPIR” value ([14]; rate 0.1160 kg/ha) was 0.0 and the “Herbicidal rating CYPIR” value ([14]; rate 0.2310 kg/ha) was 0.0. For the same compound, the “Herbicidal rating CYPIR” value ([14]; rate 0.4630 kg/ha) was 0.0.

Work on `CCOC(=O)CN1C(=O)CO/C1=N/c1cc(-n2c(=O)cc(C(F)(F)F)n(C)c2=O)c(F)cc1Cl` [Compound 22, Ethyl 2-{{2-chloro-5-[3,6-dihydro-3-methyl-2,6-dioxo-4-(trifluoromethyl)-1(2H)-pyrimidinyl]-4-fluorophenyl}imino}-4-oxo-3-oxazolidineacetate] yielded an ABUTH herbicidal rating ([1]; rate 0.0158 kg/ha) of 9.0, an ABUTH herbicidal rating ([1]; rate 0.0315 kg/ha) of 9.0 and an ABUTH herbicidal rating ([1]; rate 0.0630 kg/ha) of 9.0. The IPOHE herbicidal rating ([2]; rate 0.0158 kg/ha) was 9.0, the IPOHE herbicidal rating ([2]; rate 0.0315 kg/ha) was 9.0 and the IPOHE herbicidal rating ([2]; rate 0.0630 kg/ha) was 9.0. The SETVI herbicidal rating ([3]; rate 0.0158 kg/ha) was 3.0, the SETVI herbicidal rating ([3]; rate 0.0315 kg/ha) was 5.0 and the SETVI herbicidal rating ([3]; rate 0.0630 kg/ha) was 7.0. It also gave a GLXMAW herbicidal rating ([4]; rate 0.0158 kg/ha) of 5.5, a GLXMAW herbicidal rating ([4]; rate 0.0315 kg/ha) of 6.5 and a GLXMAW herbicidal rating ([4]; rate 0.0630 kg/ha) of 5.5. It also gave a ZEAMX herbicidal rating ([5]; rate 0.0158 kg/ha) of 7.0, a ZEAMX herbicidal rating ([5]; rate 0.0315 kg/ha) of 7.5 and a ZEAMX herbicidal rating ([5]; rate 0.0630 kg/ha) of 7.5. The “ABUTH preemergence herbicidal rating” value ([6]; rate 0.0156 kg/ha) was 9.0, the “ABUTH preemergence herbicidal rating” value ([6]; rate 0.0313 kg/ha) was 9.0 and the “ABUTH preemergence herbicidal rating” value ([6]; rate 0.0625 kg/ha) was 9.0. The “ABUTH preemergence herbicidal rating” value ([6]; rate 0.1250 kg/ha) was 9.0, the “ABUTH preemergence herbicidal rating” value ([6]; rate 0.2500 kg/ha) was 9.0 and the “AMBEL preemergence herbicidal rating” value ([7]; rate 0.0156 kg/ha) was 0.0. The “AMBEL preemergence herbicidal rating” value ([7]; rate 0.0313 kg/ha) was 5.0, the “AMBEL preemergence herbicidal rating” value ([7]; rate 0.0625 kg/ha) was 7.0 and the “AMBEL preemergence herbicidal rating” value ([7]; rate 0.1250 kg/ha) was 9.0. The “AMBEL preemergence herbicidal rating” value ([7]; rate 0.2500 kg/ha) was 9.0, the “CASOB preemergence herbicidal rating” value ([8]; rate 0.0156 kg/ha) was 0.0 and the “CASOB preemergence herbicidal rating” value ([8]; rate 0.0313 kg/ha) was 0.0. The “CASOB preemergence herbicidal rating” value ([8]; rate 0.0625 kg/ha) was 0.0, the “CASOB preemergence herbicidal rating” value ([8]; rate 0.1250 kg/ha) was 3.0 and the “CASOB preemergence herbicidal rating” value ([8]; rate 0.2500 kg/ha) was 9.0. The “IPOHE preemergence herbicidal rating” value ([9]; rate 0.0156 kg/ha) was 0.0, the “IPOHE preemergence herbicidal rating” value ([9]; rate 0.0313 kg/ha) was 2.0 and the “IPOHE preemergence herbicidal rating” value ([9]; rate 0.0625 kg/ha) was 9.0. The “IPOHE preemergence herbicidal rating” value ([9]; rate 0.1250 kg/ha) was 9.0, the “IPOHE preemergence herbicidal rating” value ([9]; rate 0.2500 kg/ha) was 9.0 and the “ECHCG preemergence herbicidal rating” value ([10]; rate 0.0156 kg/ha) was 0.0. For the same compound, the “ECHCG preemergence herbicidal rating” value ([10]; rate 0.0313 kg/ha) was 0.0, the “ECHCG preemergence herbicidal rating” value ([10]; rate 0.0625 kg/ha) was 0.0 and the “ECHCG preemergence herbicidal rating” value ([10]; rate 0.1250 kg/ha) was 3.0. The “ECHCG preemergence herbicidal rating” value ([10]; rate 0.2500 kg/ha) was 9.0, the “Herbicidal rating ECHORC” value ([11]; 0.1160 kg/ha) was 6.0 and the “Herbicidal rating ECHORC” value ([11]; 0.2310 kg/ha) was 9.0. The “Herbicidal rating ECHORC” value ([11]; 0.4630 kg/ha) was 9.0, the “Herbicidal rating CYPSE” value ([12]; 0.1160 kg/ha) was 4.0 and the “Herbicidal rating CYPSE” value ([12]; 0.2310 kg/ha) was 4.0. For the same compound, the “Herbicidal rating CYPSE” value ([12]; 0.4630 kg/ha) was 4.0, the “Herbicidal rating ECHORC” value ([13]; rate 0.1160 kg/ha) was 6.0 and the “Herbicidal rating ECHORC” value ([13]; rate 0.2310 kg/ha) was 9.0. The “Herbicidal rating ECHORC” value ([13]; rate 0.4630 kg/ha) was 9.0, the “Herbicidal rating CYPIR” value ([14]; rate 0.1160 kg/ha) was 0.0 and the “Herbicidal rating CYPIR” value ([14]; rate 0.2310 kg/ha) was 0.0. For the same compound, the “Herbicidal rating CYPIR” value ([14]; rate 0.4630 kg/ha) was 5.0.
